Literature values as cited in US20070122366A1 (priority 2005, published 2007).

What was measured:
[1] = oral administration
[2] = system: onychomycosis

## CN(C/C=C/C#CC(C)(C)C)Cc1cccc2ccccc12 [Terbinafine]
[1]; after the treatment has finished
  persistence of concentration in nails: at least 30 weeks
[1]; after therapy started
  time at which concentration in nails is detected: within the first week
[2]; 18 randomized controlled trials, onychomycosis
  average mycological cure: 76%
[2]; treatment of toenail onychomycosis
  activity in comparative studies: greater than itraconazole and fluconazole
